US12616681B2, “Compositions and methods for treating renal injury” (priority 2019, dated 2026)

What was measured:
[1] = system: human renal proximal tubular epithelial cells (hRPTECs); assay: hRPTEC apoptosis by flow cytometry with iodixanol; type: cell-based; conditions: drug with iodixanol 50 mgI/mL, 24 h
Description: Human renal proximal tubular epithelial cells (hRPTECs) were purchased from the American Type Culture Collection (#PCS-400-010TM, Manassas, VA, USA). These cells were grown in 75 cm^2 flasks in Renal Epithelial Cell Basal Medium (PCS-400-030TM, ATCCVR) supplemented with Renal Epithelial Cell Growth Kit (PCS-400-040TM, ATCCVR).
After the treatment described in the section above, the hRPTECs were pelleted by centrifugation at 1800 rpm for 10 min and incubated with annexin V fluorescein isothiocyanate and propidium iodide using an Apoptosis Detection Kit I (#556547, BD Biosciences, San Jose, CA, USA) according to the manufacture's instruction. Then quantification was conducted using a FACSC flow cytometer with Cell Quest software (BD Biosciences).

[2] = system: mice with ischemic AKI (bilateral renal IRI); assay: Renal IRI model: necrotic and apoptotic cell death, gross pathology; type: in vivo, C57/BL6 mice; conditions: 24 h after renal IRI; 5 mg/kg ip three times
Description: To evaluate necrosis, 5-μm-thick paraffin sections were stained with hematoxylin and eosin. Tubular injury of individual slides was scored semi-quantitatively according to a scoring system by a pathologist in a blinded manner. The scoring system was as follows: 0, no damage; 1, patchy isolated unicellular necrosis; 2, tubular necrosis <25%; 3, tubular necrosis 25-50%; and 4, tubular necrosis >50%. To analyze the frequency of apo ptosis, 5-μm-thick paraffin sections were subjected to a TUNEL assay (Millipore, Temecula, CA) according to the manufacturer's protocol. TUNEL-positive cells were counted in at least five separate fields (64 magnification) in the outer medulla, and the apoptosis index (in %, number of apoptosis cells/total number of cells) was calculated using GENASIS software.

[3] = system: contrast-induced acute kidney injury (CIAKI) mice; assay: CIAKI mouse model: PGE2 receptor (EP) expression in kidney tissue; type: in vivo, C57/BL6 mice; conditions: CM + drug
[4] = system: mice with ischemic AKI (bilateral renal IRI); assay: Renal IRI model: renal and serum PGE2 after a single pre-IRI dose; type: in vivo, C57/BL6 mice
Description: After reperfusion for 24 h, kidney tissues (˜20 mg) were homogenized in cold PBS containing indomethacin (10 μg/mL) and then centrifuged for 10 min at 12,000 rpm. Protein concentrations of supernatant were determined by BCA assay (ThermoFisher Scientific, Rockford, IL). The PGE2 level was measured using a PGE2 ELISA kit (R&D Systems, Minneapolis, MN) in triplicate. PGE2 levels were expressed as nanograms of PGE2 per milligram of protein. Renal function was assessed by determining the serum levels of blood urea nitrogen (BUN; Abcam), serum creatinine (Agilent 6410 LC-MS/MS, Agilent, Santa Clara, CA), lipocalin-2 (R&D Systems), and kidney injury molecule-1 (KIM-1; R&D Systems) after reperfusion for 24 h. Measurement of serum creatinine was by HPLC. Serum creatinine was assessed using an Agilent 6410 LC-MS/MS system coupled with an Agilent 1200 series HPLC system (Agilent). The sample preparation for serum creatinine was that 50 μL of serum samples were mixed with 100 μL of acetonitrile that contained creatinine-d3 as an internal standard (5 μg/mL). The mixture was centrifuged at 13,000 rpm for 10 min after vigorous vortex, and 1 μL of supernatant was then injected into the LC-MS/MS system. The chromatography separation was performed on a Hypersil GOLD C18 column (150×2.1 mm, 3 m, Thermo Scientific) using a mobile phase of 0.1% formic acid solution and acetonitrile [70:30 (vol/vol)]. The flow rate was 0.2 mL/min. Electrospray ionization was performed in the positive ion mode. The capillary voltage was set at 4,000 V. Nitrogen as the nebulizing gas was set at 15 psi, and the drying gas temperature was set at 300° C., with a flow rate of 6 L/min. The multiple-reaction monitoring mode using specific precursor/production transition was used for quantification. Detection of ions was performed by monitoring m/z 114.1→44.1 for creatinine and 117.1→77.1 for creatinine-d3. The collision energies were 10 and 15 eV for creatinine and creatinine-d3, respectively. The peak areas for all analytes were integrated automatically using Agilent Mass Hunter Analysis software (version B.01.04).

[5] = system: mice with ischemic AKI (bilateral renal IRI); assay: Renal IRI model: cAMP, AMP and adenosine levels; type: in vivo, C57/BL6 mice
Description: After reperfusion for 24 h, kidney tissues were harvested, homogenized in 10 volumes of 0.1 M HCl, and centrifuged for 10 min at 12,000 rpm. cAMP levels in kidney tissues and serum were measured using a cAMP Complete ELISA kit (Enzo Life Science, Farmingdale, NY). AMP and adenosine in kidney tissue were assessed by Agilent 6410 LC-MS/MS. Serum adenosine was measured using an assay kit (Abnova, Walnut, CA).

[6] = system: contrast-induced acute kidney injury (CIAKI) mice; assay: CIAKI mouse model: renal vasodilation in the outer medulla; type: in vivo, C57/BL6 mice; conditions: CM + drug, 48 h after CM
Description: 48 h after CM injection, kidney tissues were harvested, fixed in 4% phosphate-buffered formalin, and embedded in paraffin. To quantify vasodilation, the inner arteriole area of the outer medulla was determined using α-SMA-stained sections. They were incubated for 1 h with an α-SMA antibody. 3,30-diamino-benzidine (0.7 g/tablet; Sigma-Aldrich) was added, followed by washing three times with PBS for 1 min each. After counterstaining with Mayer's hematoxylin, the inner areas of α-SMA-positive vessels in the outer medulla (25× magnification) were measured using ImageJ software. The results were expressed as the average area of all of the renal arteries in each outer medulla section.

[7] = system: contrast-induced acute kidney injury (CIAKI) mice; assay: CIAKI mouse model: renal blood flow (laser Doppler flux); type: in vivo, C57/BL6 mice; conditions: CM + drug, 48 h after CM
Description: Total RBF was assessed by measuring renal Doppler flux using noninvasive laser Doppler flowmetry (PeriFlux System 5000, Perimed AB, Sweden). Laser Doppler probes were placed on the kidney surface to measure the renal flux. The flux was measured 48 h after CM administration. The relative increase represented the percentage increase in renal blood flow from baseline to peak for each test. Statistical significance was set as p<0.05.

[8] = system: mice with ischemic AKI (bilateral renal IRI); assay: Renal IRI model: PGE2 (EP1-EP4) and adenosine A2A receptor expression; type: in vivo, C57/BL6 mice
Description: PGE2 receptors (EP1, EP2, EP3, and EP4) and adenosineA2A receptor mRNA levels were deter-mined by real-time PCR. Their protein levels were determined by Western blot assay and immunofluorescence analysis.

[9] = pretreatment, mRNA in kidney tissue

For `CCCC[S+]([O-])c1sc2nc(-c3cccs3)cc(-c3ccccc3)c2c1N` (stereo not shown) [SW033291], the “apoptosis rate of hRPTECs” value [1] was 10.06±0.85%, the “count of TUNEL-positive apoptotic cells” value [2] was “reducing” and the “histological renal injury score” value [2] was “reducing”. The “tissue congestion in the outer medulla (gross pathology)” value [2] was “ameliorated”, the EP3 expression [3] was 1.00±0.02 fold and the EP4 expression level [3] was 1.25±0.02 fold. The “renal PGE2 levels” value ([4]; 24 h, single pretreatment dose) was “significantly decreased”, the “serum PGE2 levels” value ([4]; 24 h, single pretreatment dose) was “significantly decreased” and the “post-IRI peaks of renal PGE2 (immediate and 14 h)” value ([4]; single pre-IRI dose) was “substantially block”. The “IRI-induced decrease of adenosine in the kidney” value ([5]; 24 h after IRI) was “reversed”, the “AMP in kidney tissue” value ([5]; 24 h post-IRI) was “increased levels” and the serum adenosine ([5]; 24 h post-IRI) was “Increased”. The “renal cAMP” value ([5]; 24 h post-IRI, vs sham mice) was “elevated over sham mice”, the “average renal arteriole area in the outer medulla” value [6] was 1132.97±159.86 μm^2 and the “RBF (renal Doppler flux)” value [7] was 635.2±11.10. The “adenosine A2A receptor” value ([8]; 24 h, vs sham and IRI mice) was “induced”, the “EP4 receptor mRNA levels” value ([8]; 24 h post-IRI) was “significantly increased” and the “levels of EP2 receptors” value ([8]; 24 h post-IRI) was “no effect”. For the same molecule, the “levels of EP3 receptors” value ([8]; 24 h post-IRI) was “no effect”, the EP4 receptor protein ([8]; 24 h post-IRI, vs vehicle-treated mice) was “more than twice as high” and the “pre-IRI levels of A2A receptors” value [8, 9] was “increased”. For the same molecule, the “pre-IRI levels of EP4 receptors” value [8, 9] was “increased”.
